Key:
NCOR1 (Homo sapiens) = test: Chemoproteomic competition pulldown assay (co-competed NCoR partner); type: binding; details: iQ, SW620 lysate
Procedure: (§1) To identify proteins directly bound by lipoic acid, we employed a chemoproteomic competition assay. Briefly, (R/S)-LA was immobilized on sepharose beads via an amidation reaction to form an affinity matrix (abbreviated as iL; Fig. 1a). This affinity matrix can be incubated with cell lysate to pull down potential LA or LM target proteins and identify these targets via bottom-up proteomics. In a competition assay, free LA or LM were incubated with lysate at different concentrations before pulling down and quantifying target proteins. […] (Fig. 1b, see “Methods” for details). […] The lysate buffer used in this assay contains 1 mM DTT to mimic the intracellular reductive milieu and to reduce lipoic acid and LM. […] Additional competition assays performed in lung adenocarcinoma cell A549 lysate also identified HDAC1, HDAC2, and HDAC6 as targets (Supplementary Fig. 1b). Amongst the three cell lines tested, HDACs were the only confidently identified targets across the 1500–3000 proteins quantified in these assays. […] We validated the results by analogous pulldown competition assays using two other affinity matrices prepared via the immobilization of either the HDAC inhibitor Quisinostat (iQ) and an analog of the class IIa HDAC inhibitor Bürli’s 31[14] (iC)[12]. We have previously shown that these affinity matrices specifically bind to the active sites of HDACs and have used them for HDACi selectivity profiling. Indeed, binding of (R/S)-LA and (R/S)-LM to HDAC1, HDAC2, HDAC3, HDAC6, and, to a lesser extent, HDAC8 was confirmed in these assays (Supplementary Fig. 1c, d). No binding to class IIa HDACs or the recently discovered common HDAC inhibitor off-target MBLAC2 was observed (Supplementary Fig. 1e)[12]. […] This observation might reflect electrostatic repulsion between the HDAC10 active site gate-keeper glutamic acid residues[15],[16] and the terminal carboxylic acid of LA.
(§2) To assess the degree of protein depletion from lysates by the affinity matrix, a second pulldown (PDPD) with fresh beads was performed using the unbound protein fraction from the vehicle control flow through. The beads were washed (1 × 1 mL of lysis buffer without inhibitors and only 0.4% Igepal, 2 × 2 mL of lysis buffer without inhibitors and only 0.2% Igepal), and captured proteins were denatured with 8 M urea buffer, alkylated with 55 mM chloroacetamide and digested with Trypsin according to standard procedures. The resulting peptides were desalted on a C18 filter plate (Sep-Pak® tC18 µElution Plate, Waters), vacuum dried, and stored at −20 °C until LC–MSMS measurement.
(§3) For the competition assays, relative binding was calculated based on the protein intensity ratio to the DMSO control for every single inhibitor concentration. EC50 values were derived from a four-parameter log-logistic regression with variable slope (constrain: bottom > 0). The obtained EC50 values were multiplied with a protein-dependent correction factor (cf), resulting in the apparent Kd value (Kd^app). The correction factor is determined by calculating the ratio of the protein intensity of two consecutive pulldowns of the vehicle control sample[13]. Targets of the inhibitors were annotated manually according to published procedures[12],[46],[47]. […] Additionally, the number of unique peptides and MSMS counts per condition were taken into account. Positive target binding across several independent experiments performed with different cell lysates further substantiated our confidence for a true positive drug-target binding event.

NCOR2 (Homo sapiens) = test: as above; type: binding; details: iQ, SW620 lysate
Procedure: as §1, §2, §3

[1] = cited from earlier work

NCOR2 (Homo sapiens), sequence (O15379 whole entry): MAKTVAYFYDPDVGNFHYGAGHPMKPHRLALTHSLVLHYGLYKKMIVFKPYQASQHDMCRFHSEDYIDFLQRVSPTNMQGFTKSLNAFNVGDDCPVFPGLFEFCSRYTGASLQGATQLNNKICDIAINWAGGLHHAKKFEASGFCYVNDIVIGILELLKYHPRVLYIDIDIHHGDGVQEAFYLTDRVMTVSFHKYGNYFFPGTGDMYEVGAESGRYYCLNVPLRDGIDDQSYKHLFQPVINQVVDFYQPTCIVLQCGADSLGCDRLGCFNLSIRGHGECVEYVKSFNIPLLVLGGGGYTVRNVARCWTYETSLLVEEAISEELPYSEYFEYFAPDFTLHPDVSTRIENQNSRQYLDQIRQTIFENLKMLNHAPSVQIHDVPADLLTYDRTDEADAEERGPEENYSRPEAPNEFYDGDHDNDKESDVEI
NCOR2 (Homo sapiens), sequence (Q9Y618 whole entry, further chain): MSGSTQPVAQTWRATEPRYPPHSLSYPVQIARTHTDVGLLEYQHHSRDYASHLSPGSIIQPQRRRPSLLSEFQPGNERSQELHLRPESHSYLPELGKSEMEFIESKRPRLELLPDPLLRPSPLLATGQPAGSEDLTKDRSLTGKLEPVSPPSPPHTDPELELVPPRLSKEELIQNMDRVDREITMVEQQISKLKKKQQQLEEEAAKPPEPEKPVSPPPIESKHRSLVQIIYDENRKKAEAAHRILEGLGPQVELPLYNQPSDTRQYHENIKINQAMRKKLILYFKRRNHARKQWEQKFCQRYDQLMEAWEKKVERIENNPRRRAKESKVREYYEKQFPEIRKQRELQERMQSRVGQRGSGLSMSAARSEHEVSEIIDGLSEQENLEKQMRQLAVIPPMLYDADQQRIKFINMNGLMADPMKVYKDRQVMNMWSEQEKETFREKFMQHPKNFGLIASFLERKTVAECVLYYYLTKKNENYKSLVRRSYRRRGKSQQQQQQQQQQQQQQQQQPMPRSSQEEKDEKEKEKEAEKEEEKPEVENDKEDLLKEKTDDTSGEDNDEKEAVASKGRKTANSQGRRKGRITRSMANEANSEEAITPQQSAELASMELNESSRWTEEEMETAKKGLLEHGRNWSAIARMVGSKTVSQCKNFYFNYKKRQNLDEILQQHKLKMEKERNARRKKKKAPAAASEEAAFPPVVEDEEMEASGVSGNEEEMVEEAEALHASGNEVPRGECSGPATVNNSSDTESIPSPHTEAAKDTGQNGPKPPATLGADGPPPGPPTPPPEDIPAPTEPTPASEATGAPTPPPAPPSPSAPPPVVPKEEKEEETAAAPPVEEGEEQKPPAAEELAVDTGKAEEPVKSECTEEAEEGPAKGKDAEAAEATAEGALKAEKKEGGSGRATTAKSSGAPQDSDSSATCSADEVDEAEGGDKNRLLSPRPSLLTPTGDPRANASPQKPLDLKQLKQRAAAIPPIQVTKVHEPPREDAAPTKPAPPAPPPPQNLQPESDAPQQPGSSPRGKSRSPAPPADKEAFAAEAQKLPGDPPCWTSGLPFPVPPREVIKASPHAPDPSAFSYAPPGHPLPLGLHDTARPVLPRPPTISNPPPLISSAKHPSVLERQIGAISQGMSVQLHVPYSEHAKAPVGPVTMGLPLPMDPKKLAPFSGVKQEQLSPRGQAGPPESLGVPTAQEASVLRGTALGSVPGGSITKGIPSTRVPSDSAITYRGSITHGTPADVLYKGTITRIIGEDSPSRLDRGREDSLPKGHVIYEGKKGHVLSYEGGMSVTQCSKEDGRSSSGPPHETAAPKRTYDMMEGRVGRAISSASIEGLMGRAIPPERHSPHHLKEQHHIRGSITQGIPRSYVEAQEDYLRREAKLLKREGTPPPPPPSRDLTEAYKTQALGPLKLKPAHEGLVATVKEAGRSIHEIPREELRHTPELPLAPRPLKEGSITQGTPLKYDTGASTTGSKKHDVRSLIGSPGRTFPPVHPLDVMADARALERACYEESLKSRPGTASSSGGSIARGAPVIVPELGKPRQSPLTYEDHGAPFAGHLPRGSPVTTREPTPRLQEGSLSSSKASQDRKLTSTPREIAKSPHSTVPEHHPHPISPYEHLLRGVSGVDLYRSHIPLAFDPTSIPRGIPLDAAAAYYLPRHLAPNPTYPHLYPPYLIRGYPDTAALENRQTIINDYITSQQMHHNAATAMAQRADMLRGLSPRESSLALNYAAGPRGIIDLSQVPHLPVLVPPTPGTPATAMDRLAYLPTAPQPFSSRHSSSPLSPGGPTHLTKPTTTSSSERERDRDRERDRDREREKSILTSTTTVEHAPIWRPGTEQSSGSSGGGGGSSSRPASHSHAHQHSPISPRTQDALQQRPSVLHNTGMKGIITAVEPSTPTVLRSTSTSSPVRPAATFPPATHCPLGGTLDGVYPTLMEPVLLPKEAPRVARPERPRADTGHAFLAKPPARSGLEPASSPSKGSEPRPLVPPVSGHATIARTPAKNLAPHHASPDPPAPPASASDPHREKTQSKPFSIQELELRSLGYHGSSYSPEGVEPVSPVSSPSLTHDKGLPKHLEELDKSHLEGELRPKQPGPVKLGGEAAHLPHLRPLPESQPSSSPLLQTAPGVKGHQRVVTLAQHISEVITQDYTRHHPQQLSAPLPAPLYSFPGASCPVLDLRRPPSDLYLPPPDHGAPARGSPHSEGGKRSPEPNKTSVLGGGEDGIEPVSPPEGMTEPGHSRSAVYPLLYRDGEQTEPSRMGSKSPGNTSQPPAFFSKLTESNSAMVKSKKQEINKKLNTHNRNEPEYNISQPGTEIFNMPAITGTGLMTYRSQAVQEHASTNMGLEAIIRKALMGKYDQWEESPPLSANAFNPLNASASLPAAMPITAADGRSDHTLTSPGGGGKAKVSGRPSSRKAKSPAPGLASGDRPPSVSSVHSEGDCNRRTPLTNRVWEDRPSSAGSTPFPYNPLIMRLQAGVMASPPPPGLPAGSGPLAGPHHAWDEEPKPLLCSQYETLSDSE

Row | relative binding vs DMSO (NCOR1 (Homo sapiens); log10 M -3.52288) | relative binding vs DMSO (NCOR1 (Homo sapiens); log10 M -4) | relative binding vs DMSO (NCOR1 (Homo sapiens); log10 M -4.52288) | relative binding vs DMSO (NCOR1 (Homo sapiens); log10 M -5) | relative binding vs DMSO (NCOR1 (Homo sapiens); log10 M -5.52288) | relative binding vs DMSO (NCOR1 (Homo sapiens); log10 M -6) | relative binding vs DMSO (NCOR1 (Homo sapiens); log10 M -6.52288) | relative binding vs DMSO (NCOR1 (Homo sapiens); log10 M -7) | Structure (SMILES) | relative binding vs DMSO (NCOR2 (Homo sapiens); log10 M -3.52288) | relative binding vs DMSO (NCOR2 (Homo sapiens); log10 M -4) | relative binding vs DMSO (NCOR2 (Homo sapiens); log10 M -4.52288) | relative binding vs DMSO (NCOR2 (Homo sapiens); log10 M -5) | relative binding vs DMSO (NCOR2 (Homo sapiens); log10 M -5.52288) | relative binding vs DMSO (NCOR2 (Homo sapiens); log10 M -6) | relative binding vs DMSO (NCOR2 (Homo sapiens); log10 M -6.52288) | relative binding vs DMSO (NCOR2 (Homo sapiens); log10 M -7) | peak plasma concentrations ([1]; clinically relevant doses 600 to 2400 mg/day, orally and intravenously) [µM] | peak plasma concentration ([1]; in humans)
1 | 0.2142 | 0.3668 | 0.5065 | 0.4972 | 0.5554 | 0.6839 | 0.8502 | 0.9007 | NC(=O)CCCCC1CCSS1 (racemic) [(R/S)-LM, (R/S)-lipoamide] | – | – | – | – | – | – | – | – | – | –
2 | – | – | – | – | – | – | – | – | O=C(O)CCCCC1CCSS1 (racemic) [(R/S)-LA, (R/S)-lipoic acid] | 0 | 0 | 0.568 | 0.5133 | 0.9883 | 0.9231 | 1.028 | 1.032 | 100 to 500 | about 0.5 mM

— publication PMC10272112 (Nature Communications, 2023)
